Source: ChEMBL document CHEMBL3352549, “Discovery, biological evaluation, and crystal structure of a novel nanomolar selective butyrylcholinesterase inhibitor” (J Med Chem, 2014)

Legend:
[1] = Cytotoxicity against human SH-SY5Y cells assessed as reduction in cell viability at 10 uM after 48 hrs by MTS assay; assay type: cell-based
Cholinesterase [2] = biological target: T1, Cholinesterase (Homo sapiens, UniProt P06276); assay: Inhibition of recombinant human BChE at 10 uM by Ellman method
[3] = biological target: Cholinesterase (Mus musculus) (UniProt Q03311); assay: Inhibition of recombinant mouse BChE at 10 uM by Ellman method
SH-SY5Y [4] = assay: Neuroprotective activity in human SH-SY5Y cells assessed as inhibition of amyloid beta(1-42)-induced neurotoxicity at 0.1 to 10 uM incubated for 48 hrs by MTS assay; assay type: functional, cell-based
SH-SY5Y [5] = assay: Neuroprotective activity in human SH-SY5Y cells assessed as inhibition of amyloid beta(1-42)-induced neurotoxicity at 0.1 to 10 uM incubated for 48 hrs by LDH release assay; assay type: functional, cell-based
Cholinesterase [6] = biological target: T1, Cholinesterase
Description: Inhibition of recombinant human BChE by Ellman method

Acetylcholinesterase = biological target: T2, Acetylcholinesterase (Mus musculus, UniProt P21836); assay: Inhibition of recombinant mouse AChE by Ellman method
T2 sequence (P21836 whole entry): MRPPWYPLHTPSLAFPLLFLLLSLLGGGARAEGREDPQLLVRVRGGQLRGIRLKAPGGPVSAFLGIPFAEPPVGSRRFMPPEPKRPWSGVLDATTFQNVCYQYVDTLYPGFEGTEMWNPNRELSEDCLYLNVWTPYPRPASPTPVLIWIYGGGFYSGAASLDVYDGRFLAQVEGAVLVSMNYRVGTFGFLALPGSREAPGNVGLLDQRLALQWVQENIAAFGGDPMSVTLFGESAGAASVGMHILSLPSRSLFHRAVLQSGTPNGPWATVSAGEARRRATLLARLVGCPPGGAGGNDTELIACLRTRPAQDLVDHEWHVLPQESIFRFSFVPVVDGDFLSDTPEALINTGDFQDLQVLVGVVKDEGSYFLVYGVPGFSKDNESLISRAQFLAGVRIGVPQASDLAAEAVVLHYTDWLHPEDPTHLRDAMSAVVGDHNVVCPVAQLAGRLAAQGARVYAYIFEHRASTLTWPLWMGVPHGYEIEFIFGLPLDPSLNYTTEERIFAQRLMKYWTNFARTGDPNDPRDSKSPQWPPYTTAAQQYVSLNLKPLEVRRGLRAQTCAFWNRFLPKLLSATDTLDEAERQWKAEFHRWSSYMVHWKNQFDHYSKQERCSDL

[7] = biological target: T3, Acetylcholinesterase (Mus musculus) (UniProt P21836); assay: Inhibition of recombinant mouse AChE assessed as residual activity at 10 uM by Ellman method
T3 sequence (whole entry): T2 sequence (P21836 whole entry)

Cholinesterase [8] = biological target: T1, Cholinesterase; assay: Inhibition of recombinant human BChE at 50 nM by stopped flow apparatus method

Chain of Cholinesterase (Mus musculus) (Q03311 whole entry): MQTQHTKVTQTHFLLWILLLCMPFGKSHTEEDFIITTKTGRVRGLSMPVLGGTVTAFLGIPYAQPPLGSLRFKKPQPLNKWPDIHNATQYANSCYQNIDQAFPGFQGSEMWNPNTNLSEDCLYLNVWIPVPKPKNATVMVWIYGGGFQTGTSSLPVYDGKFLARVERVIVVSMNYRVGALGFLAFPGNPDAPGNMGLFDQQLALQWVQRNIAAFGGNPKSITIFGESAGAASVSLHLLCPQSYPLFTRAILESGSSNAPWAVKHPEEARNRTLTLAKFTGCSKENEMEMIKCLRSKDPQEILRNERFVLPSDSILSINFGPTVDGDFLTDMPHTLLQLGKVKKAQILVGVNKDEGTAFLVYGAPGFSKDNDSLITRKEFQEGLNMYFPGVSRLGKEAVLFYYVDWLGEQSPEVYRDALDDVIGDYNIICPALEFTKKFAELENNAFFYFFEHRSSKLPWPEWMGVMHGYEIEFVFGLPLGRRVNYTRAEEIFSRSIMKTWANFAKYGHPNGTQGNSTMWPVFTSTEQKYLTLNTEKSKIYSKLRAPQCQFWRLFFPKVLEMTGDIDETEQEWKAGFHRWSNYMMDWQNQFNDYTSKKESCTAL
T1 sequence (P06276 whole entry): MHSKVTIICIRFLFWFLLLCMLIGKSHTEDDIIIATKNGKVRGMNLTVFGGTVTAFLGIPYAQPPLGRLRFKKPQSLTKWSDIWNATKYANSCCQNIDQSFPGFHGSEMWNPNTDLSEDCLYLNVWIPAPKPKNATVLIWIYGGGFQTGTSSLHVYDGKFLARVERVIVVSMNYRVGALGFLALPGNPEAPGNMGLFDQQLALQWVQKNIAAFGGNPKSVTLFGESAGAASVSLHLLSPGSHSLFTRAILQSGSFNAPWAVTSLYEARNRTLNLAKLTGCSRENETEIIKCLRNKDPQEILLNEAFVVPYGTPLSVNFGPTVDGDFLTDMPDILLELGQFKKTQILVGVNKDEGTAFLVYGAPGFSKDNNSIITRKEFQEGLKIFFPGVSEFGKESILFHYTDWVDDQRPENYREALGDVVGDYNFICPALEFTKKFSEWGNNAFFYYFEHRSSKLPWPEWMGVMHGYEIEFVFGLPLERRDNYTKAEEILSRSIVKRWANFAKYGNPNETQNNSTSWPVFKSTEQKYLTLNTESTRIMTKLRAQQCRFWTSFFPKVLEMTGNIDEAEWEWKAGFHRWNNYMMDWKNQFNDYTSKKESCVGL

SMILES | Activity [1] | inhibition (Cholinesterase [2]) | inhibition [3] | Activity (SH-SY5Y [4]) | Activity (SH-SY5Y [5]) | IC50 (Cholinesterase [6]) | IC50 (Acetylcholinesterase) | Activity [7] | Ki (Cholinesterase [8]) | IC50 (Acetylcholinesterase; read-out: IC50)
COCCN(CC1CCCN(C2Cc3ccccc3C2)C1)C(=O)c1ccc2ccccc2c1 (racemic) | Non-toxic | > 50% | > 50% | Dose-dependent effect | Dose-dependent effect | – | – | – | – | –
CCn1nc(C(=O)N2CCCC2)c2c1CCC(NCCc1nc(-c3ccccc3)cs1)C2 (centres undefined) | – | > 50% | > 50% | – | – | 2150 nM | Not Active | – | – | –
CC(c1nc2ccccc2s1)N(C)C(=O)CN1CCCC1c1ccc2c(c1)OCCCO2 (centres undefined) | – | > 50% | > 50% | – | – | 1360 nM | – | 94% | – | –
COCCN(C[C@@H]1CCCN(C2Cc3ccccc3C2)C1)C(=O)c1ccc2ccccc2c1 | – | – | – | – | – | 13 nM | – | – | 2.71 nM | 101000 nM
COCCN(C[C@H]1CCCN(C2Cc3ccccc3C2)C1)C(=O)c1ccc2ccccc2c1 | – | – | – | – | – | 166 nM | – | – | 27 nM | 110000 nM
